“Also recorded” adds a separate entry of the source. Read-outs that look alike come from different tables or passages of the source.
Tests used:
[1] = biological target: T1, recombinant human dopamine transporter (Homo sapiens, UniProt Q01959); experiment: dopamine reuptake inhibition in HEK 293 cells; type: cell-based; conditions: for IC50: HEK 293 cells; for selectivity for the dopamine transporter over the norepinephrine transporter: in words, from binding and reuptake values; for NE/DA REUPTAKE: ratio of NE/DA reuptake IC50, selectivity for dopamine over norepinephrine transporter
T1 construct: expressed in transfected cells

[2] = biological target: T2, recombinant human serotonin transporter (Homo sapiens, UniProt P31645); experiment: biochemical; type: binding
T2 construct: expressed in transfected cells

[3] = biological target: T3, recombinant human norepinephrine transporter (Homo sapiens, UniProt P23975); experiment: biochemical; type: binding
T3 construct: expressed in transfected cells

[4] = biological target: T3, recombinant human norepinephrine transporter; experiment: cell-based
[5] = biological target: T1, recombinant human dopamine transporter; experiment: [125I]RTI-55 binding, dopamine transporter in HEK 293 cells; conditions: for Ki: HEK 293 cells; for potency at binding to the dopamine transporter and blocking dopamine reuptake: in words, compared with MPH / other samples
[6] = biological target: T2, recombinant human serotonin transporter; experiment: serotonin (5HT) reuptake inhibition in HEK 293 cells; type: cell-based
[7] = DOPAMINE DA REUPTAKE (IC50), RR/SS racemates table
[8] = RR/SS racemates table, HEK 293 cells, read-out: SEROTONIN [I125]-RTI-55 BINDING (Ki)
[9] = NOREPINEPHRINE [I125]-RTI-55 BINDING (Ki)
[10] = DOPAMINE [I125]-RTI-55 BINDING (Ki), RR/SS racemates table
[11] = RR/SS racemates table, read-out: DOPAMINE DA REUPTAKE (IC50)
[12] = RR/SS racemates table, HEK 293 cells, read-out: NOREPINEPHRINE [I125]-RTI-55 BINDING (Ki)
[13] = RR/SS racemates table, HEK 293 cells, read-out: NOREPINEPHRINE NE REUPTAKE (IC50)
[14] = RR/SS racemates table, read-out: DOPAMINE [I125]-RTI-55 BINDING (Ki)
[15] = RR/SS racemates table, HEK 293 cells, read-out: SEROTONIN 5HT REUPTAKE (IC50)
[16] = DOPAMINE DA REUPTAKE (IC50), RS/SR racemates table
[17] = RS/SR racemates table, HEK 293 cells, read-out: SEROTONIN [I125]-RTI-55 BINDING (Ki)
[18] = DOPAMINE [I125]-RTI-55 BINDING (Ki), RS/SR racemates table
[19] = SEROTONIN 5HT REUPTAKE (IC50), RS/SR racemates table, HEK 293 cells
[20] = SEROTONIN [I125]-RTI-55 BINDING (Ki)
[21] = SEROTONIN 5HT REUPTAKE (IC50), RR/SS racemates table, HEK 293 cells
[22] = RS/SR racemates table, read-out: DOPAMINE DA REUPTAKE (IC50)
[23] = RS/SR racemates table, HEK 293 cells, read-out: NOREPINEPHRINE [I125]-RTI-55 BINDING (Ki)
[24] = RS/SR racemates table, HEK 293 cells, read-out: NOREPINEPHRINE NE REUPTAKE (IC50)
[25] = RS/SR racemates table, read-out: DOPAMINE [I125]-RTI-55 BINDING (Ki)

T1 sequence (Q01959 whole entry): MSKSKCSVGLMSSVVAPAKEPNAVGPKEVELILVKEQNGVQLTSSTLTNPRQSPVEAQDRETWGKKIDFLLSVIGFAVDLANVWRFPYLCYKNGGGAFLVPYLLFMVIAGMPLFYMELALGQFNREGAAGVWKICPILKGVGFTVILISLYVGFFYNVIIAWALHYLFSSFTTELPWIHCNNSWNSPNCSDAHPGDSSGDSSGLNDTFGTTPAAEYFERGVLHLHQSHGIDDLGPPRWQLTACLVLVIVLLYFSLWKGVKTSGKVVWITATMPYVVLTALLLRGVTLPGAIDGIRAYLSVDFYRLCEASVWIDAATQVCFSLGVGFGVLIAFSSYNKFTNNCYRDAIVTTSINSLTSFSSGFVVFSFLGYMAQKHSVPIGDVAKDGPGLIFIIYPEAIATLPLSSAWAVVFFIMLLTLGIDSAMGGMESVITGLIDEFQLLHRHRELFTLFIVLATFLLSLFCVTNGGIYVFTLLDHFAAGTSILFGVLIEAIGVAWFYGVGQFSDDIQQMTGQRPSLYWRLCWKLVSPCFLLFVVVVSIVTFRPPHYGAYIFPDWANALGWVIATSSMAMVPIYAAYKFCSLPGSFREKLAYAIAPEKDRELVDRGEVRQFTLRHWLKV
T3 sequence (P23975 whole entry): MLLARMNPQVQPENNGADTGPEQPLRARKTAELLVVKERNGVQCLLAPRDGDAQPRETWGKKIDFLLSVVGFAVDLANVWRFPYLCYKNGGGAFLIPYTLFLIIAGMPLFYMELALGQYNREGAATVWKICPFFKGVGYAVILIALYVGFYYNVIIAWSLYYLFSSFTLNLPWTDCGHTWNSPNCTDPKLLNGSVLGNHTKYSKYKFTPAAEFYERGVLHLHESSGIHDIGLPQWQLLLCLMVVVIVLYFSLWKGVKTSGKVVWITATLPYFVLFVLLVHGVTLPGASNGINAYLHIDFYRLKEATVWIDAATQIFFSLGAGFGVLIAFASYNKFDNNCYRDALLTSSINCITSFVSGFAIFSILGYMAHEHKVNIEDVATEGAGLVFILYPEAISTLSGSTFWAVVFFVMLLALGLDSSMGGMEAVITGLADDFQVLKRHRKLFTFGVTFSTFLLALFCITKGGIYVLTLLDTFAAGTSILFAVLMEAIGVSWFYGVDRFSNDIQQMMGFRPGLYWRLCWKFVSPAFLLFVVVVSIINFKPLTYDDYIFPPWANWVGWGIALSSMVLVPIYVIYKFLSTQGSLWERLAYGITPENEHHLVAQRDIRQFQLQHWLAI
T2 sequence (P31645 whole entry): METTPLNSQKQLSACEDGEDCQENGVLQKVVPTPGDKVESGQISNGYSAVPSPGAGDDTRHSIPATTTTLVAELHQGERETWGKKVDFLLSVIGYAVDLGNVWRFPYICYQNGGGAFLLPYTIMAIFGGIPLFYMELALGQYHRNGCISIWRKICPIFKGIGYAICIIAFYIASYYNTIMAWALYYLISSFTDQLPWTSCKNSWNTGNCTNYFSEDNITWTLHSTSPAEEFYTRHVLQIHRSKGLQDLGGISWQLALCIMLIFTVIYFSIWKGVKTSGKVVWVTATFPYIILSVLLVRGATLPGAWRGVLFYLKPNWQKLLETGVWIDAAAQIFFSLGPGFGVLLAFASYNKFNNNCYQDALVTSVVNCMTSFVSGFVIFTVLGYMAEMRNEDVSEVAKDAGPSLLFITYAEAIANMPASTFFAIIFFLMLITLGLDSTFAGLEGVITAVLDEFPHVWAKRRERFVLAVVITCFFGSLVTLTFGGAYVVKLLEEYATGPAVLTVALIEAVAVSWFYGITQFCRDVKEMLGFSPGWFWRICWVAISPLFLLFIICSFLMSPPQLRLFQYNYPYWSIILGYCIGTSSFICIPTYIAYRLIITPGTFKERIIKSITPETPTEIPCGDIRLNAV

CC(C)(C)CC(c1ccc(Cl)cc1)C1CCCCN1 (racemic) [F]
IC50 [1, 7]: 60 ± 2 nM
selectivity for the dopamine transporter over the norepinephrine transporter [1]: enhanced selectivity
NE/DA REUPTAKE [1]: 8.7
Ki [2, 8]: 3900 ± 500 nM
Ki [3, 9]: 1400 ± 400 nM
IC50 ([4]; NORE[…] REUPTAKE (IC50)): 520 ± 110 nM
Ki [5, 10]: 120 ± 40 nM

CCCC(c1ccc(Cl)cc1)C1CCCCN1 (racemic) [Sample E]
IC50 [1, 11]: 7.4 ± 0.4 nM
selectivity for the dopamine transporter over the norepinephrine transporter [1]: enhanced selectivity
NE/DA REUPTAKE [1]: 6.8
Ki [2, 8]: 2700 ± 600 nM
Ki [3, 12]: 200 ± 80 nM
IC50 [4, 13]: 50 ± 15 nM
Ki [5, 14]: 11 ± 3 nM
potency at binding to the dopamine transporter and blocking dopamine reuptake [5]: enhanced potency; also recorded: most potent
IC50 [6, 15]: 2.9 ± 1.1 µM

CCCC(c1ccc(Cl)cc1)C1CCCCN1 (racemic) [EE]
IC50 [1, 16]: 450 ± 60 nM
Ki [2, 17]: 3200 ± 1100 nM
Ki [3, 9]: 1400 ± 400 nM
IC50 ([4]; NORE[…] REUPTAKE (IC50)): 200 ± 50 nM
Ki [5, 18]: 380 ± 40 nM
IC50 [6, 19]: 1.3 ± 0.007 µM

CC(C)C(c1ccc(Cl)cc1)C1CCCCN1 (single isomer, unassigned) [C]
IC50 [1, 7]: 32 ± 6 nM
NE/DA REUPTAKE [1]: 1.6
Ki [2, 20]: 5300 ± 1300 nM
Ki [3, 9]: 810 ± 170 nM
IC50 ([4]; NORE[…] REUPTAKE (IC50)): 51 ± 20 nM
Ki [5, 10]: 46 ± 16 nM
IC50 [6, 21]: 3.3 ± 0.4 µM

CC(C)CC(c1ccc(Cl)cc1)C1CCCCN1 (racemic) [Sample DD]
IC50 [1, 22]: 380 ± 130 nM
Ki [3, 23]: 4500 ± 1500 nM
IC50 [4, 24]: 750 ± 170 nM
Ki [5, 25]: 170 ± 50 nM
potency at binding to the dopamine transporter and blocking dopamine reuptake [5]: inactivity

Clc1ccc(C(CC2CCCC2)C2CCCCN2)cc1 (racemic) [L]
IC50 [1, 11]: 21 ± 1 nM
Ki [3, 12]: 1700 ± 600 nM
IC50 [4, 13]: 310 ± 40 nM
Ki [5, 14]: 9.4 ± 1.5 nM

COC(=O)C(c1ccc(Cl)cc1)C1CCCCN1 (single isomer, unassigned) [AA]
IC50 [1, 16]: 2700 ± 1000 nM
Ki [2, 20]: 5900 ± 200 nM
IC50 [4, 24]: 1400 ± 400 nM
Ki [5, 18]: 2000 ± 600 nM
IC50 ([6]; SEROTONIN 5HT REUPTAKE (IC50), RS/SR racemates table, in μM): > 10 µM

CC(C)(C)CC(c1ccc(Cl)cc1)C1CCCCN1 (racemic) [FF]
IC50 [1, 16]: 670 ± 260 nM
Ki [2, 17]: 3500 ± 1000 nM
IC50 ([4]; NORE[…] REUPTAKE (IC50)): 730 ± 250 nM
Ki [5, 18]: 600 ± 40 nM
IC50 [6, 19]: 1.8 ± 0.6 µM

COC(=O)C(c1ccc(Cl)cc1)C1CCCCN1 (single isomer, unassigned) [A]
IC50 [1, 7]: 11 ± 2 nM
NE/DA REUPTAKE [1]: 1.0
Ki [2, 20]: 6000 ± 100 nM
Ki [3, 12]: 110 ± 40 nM
IC50 [4, 13]: 11 ± 3 nM
Ki [5, 10]: 25 ± 8 nM

CC(C)CC(c1ccc(Cl)c(Cl)c1)C1CCCCN1 (racemic) [Sample NN]
IC50 [1, 22]: 13 ± 3 nM
Ki [2, 17]: 450 ± 40 nM
Ki [3, 23]: 120 ± 30 nM
IC50 [4, 24]: 19 ± 3 nM
Ki [5, 25]: 31 ± 11 nM
potency at binding to the dopamine transporter and blocking dopamine reuptake [5]: considerably more potent; also recorded: most potent
IC50 ([6]; RS/SR racemates table, HEK 293 cells, read-out: SEROTONIN 5HT REUPTAKE (IC50)): 0.29 ± 0.06 µM

Clc1ccc(C(C2CCCC2)C2CCCCN2)cc1 (single isomer, unassigned) [KK]
IC50 [1, 16]: 240 ± 30 nM
Ki [2, 17]: 4600 ± 700 nM
Ki [5, 18]: 690 ± 140 nM
IC50 [6, 19]: 4.2 ± 0.9 µM

Clc1ccc(C(Cc2ccccc2)C2CCCCN2)cc1 (single isomer, unassigned) [J]
IC50 [1, 7]: 370 ± 90 nM
selectivity for the dopamine transporter over the norepinephrine transporter [1]: enhanced selectivity
NE/DA REUPTAKE [1]: 7.8
Ki [2, 20]: 1100 ± 200 nM
Ki [3, 9]: 2900 ± 800 nM
IC50 ([4]; NORE[…] REUPTAKE (IC50)): 2900 ± 600 nM
Ki [5, 10]: 440 ± 110 nM
IC50 [6, 21]: 1.1 ± 0.2 µM

CC(C)CC(c1ccc(Cl)c(Cl)c1)C1CCCCN1 (racemic) [Sample N]
IC50 [1, 11]: 5.5 ± 1.3 nM
NE/DA REUPTAKE [1]: 1.6
Ki [2, 8]: 1600 ± 100 nM
Ki [3, 12]: 25 ± 9 nM
IC50 [4, 13]: 9 ± 1 nM
Ki [5, 14]: 1 ± 0.5 nM
potency at binding to the dopamine transporter and blocking dopamine reuptake [5]: enhanced potency; also recorded: most potent
IC50 [6, 15]: 1.1 ± 0.3 µM

COC(=O)C(c1ccc(Cl)c(Cl)c1)C1CCCCN1 (single isomer, unassigned) [M]
IC50 [1, 7]: 23 ± 3 nM
NE/DA REUPTAKE [1]: 0.43
Ki [2, 8]: 1600 ± 150 nM
Ki [3, 12]: 14 ± 6 nM
IC50 [4, 13]: 10 ± 1 nM
Ki [5, 10]: 1.4 ± 0.1 nM
IC50 [6, 21]: 0.54 ± 0.11 µM

CCC(c1ccc(Cl)cc1)C1CCCCN1 (single isomer, unassigned) [B]
IC50 [1, 7]: 23 ± 5 nM
selectivity for the dopamine transporter over the norepinephrine transporter [1]: enhanced selectivity
NE/DA REUPTAKE [1]: 9.1
Ki [2, 20]: 7800 ± 800 nM
Ki [3, 12]: 360 ± 60 nM
IC50 [4, 13]: 210 ± 30 nM
Ki [5, 10]: 37 ± 10 nM
IC50 [6, 21]: 2.4 ± 0.4 µM
